Laboratory results from patent US8772493B2, “Compounds having auditory protective effect” (Ajou University Industry-Academic Cooperation Foundation, priority 2010, dated 2014).

Experiments:
HEI-OC1 cells [1] = assay: Cell cycle analysis using FACScan; type: cell-based
Protocol: The cells were treated with trypsin, washed with PBS, and then stained with a dye (5 mg/ml propidium iodide, 20 mg/ml RNase A) in a dark room at normal temperature for 15 minutes. The stained cells were analyzed with a flow cytometry cell sorter (Becton Dickinson).

HEI-OC1 [2] = assay: TUNEL assay; type: cell-based
Protocol: 3×10^5 cells were seeded on the 6-well, incubated, then starved for 24 hours, and treated with the drug of the present invention by conditions, and then incubated for 24 hours. The cells were fixed with addition of 4% paraformaldehyde at normal temperature for 30 minutes, then washed two times with PBS, and treated with the permeablilization solution comprising 0.1% Triton X-100 at normal temperature for 10 minutes. The cells were washed again two times with PBS, and after adding terminal deoxynucleotidyl transferase (TDT) and nucleotide mixture, incubated for one hour with blocking out the light at 37° C. After washing two times with PBS, the apoptosis of cells was examined under fluorescence microscope. For control staining of cells without apoptosis, 4,6-diamino-2-phenylindole (DAPI, Sigma) solution was used. The stained cells were analyzed using a fluorescence microscope (Carl Zeiss, Oberkochen, Germany). TUNEL-positive cells were manually counted under a 200× magnification field in triplicate.

UB-OC1 = assay: MTT assay in auditory cells UB-OC1; type: cell-based
Protocol: (§1) HEI-OC1 and UB-OC1 as auditory cells were subjected to MTT assay. Auditory cell lines were seeded on a 96-well plate in the ratio of 2×10^3 cells/well, and then cultured in an incubator under the condition of 37° C., 5% CO2 for 2 days. The compounds of Examples 1 and 2 were used at various concentrations with operating 5 runs for each sample, and then cultured in the incubator for 16 hours. The plate was treated with 1 mg/ml MTT solution per well, and then cultured in the incubator for 4 hours. Then, 100 μl DMSO per well was used to dissolve formazan, and the optical density of formazan as dissolved was measured at 540 nm.

zebrafish neuromast [3] = assay: Scanning and transmission electron microscopy of zebrafish neuromast; type: in vivo, Danio rerio; details: 50 μM cisplatin
Text: They were dried with a drier, treated with an evaporator (MED010; Baltec, Hudson, N.H.), and then observed using a scanning microscope (JSM-6700F JEOL, Tokyo, Japan).
Larvae were cut in the direction from head to tail, sliced to a thickness of […], and then stained with 1% toluidine blue. They were divided into ultrathin sections (90 nm) using Ultracut S microtome (Leica, Wetzlar, Germany), mounted on 200-mesh Athene thin bar-grids, treated with uranyl acetate and lead citrate, and then observed using s transmission electron microscope (EM 902A Carl Zeiss).

HEI-OC1 [4] = assay: MTT assay in auditory cells HEI-OC1; type: cell-based; details: for cytotoxicity in auditory hair cells (MTT): HEI-OC1, compound alone, up to elevated dose of 200
Protocol: as §1

HEI-OC1 [5] = assay: Measurement of mitochondrial membrane potential (MMP), JC-1; type: cell-based
Protocol: The mitochondrial membrane potential (MMP) was measured using 5,5V,6,6V-tetrachloro-1,1V,3,3V-tetraethylbenzimidazolcarbocyanine iodide (JC-1; Molecular Probes) as a lipophilic cationic probe.
JC-1 is a fluorescent dye which is accumulated by mitochondria in its inside. If the function of mitochondria is normal, MMP is high and mitochondria are predominantly red. Then, if mitochondria are damaged, MMP is reduced and mitochondria are changed into green.

[6] = tested on: zebrafish (Danio rerio) embryo; assay: Drug toxicity in zebrafish and effect on zebrafish embryos; type: in vivo
Protocol: To identify the drug toxicity of the compound of the present invention, zebrafish (Danio rerio) embryo was treated with the compound of Example 1 by concentrations (0, 50, 100, 150, 200, 400 μM), and then cultured in the incubator at 28.5° C. for one hour, washed three times with fresh 0.3× Danieu's Solution, and then cultured at 28.5° C. for 3 hours. The embryotoxicity was identified by examining the hatching rate, organogenesis, development, etc. of embryo under a microscope (AXIO vert 200, Carl zeiss, Gottingen, Germany), and the survival rate of embryo was determined depending on whether the cardiac contractility of embryo is present or absent.
Further, to determine the general toxicity of the compound of Example 1, the influence of the compound of Example 1 on embryos of zebrafish were tested. One female and two male sexually mature zebrafish were maintained for a 14 h light/10 h dark photoperiod. Several rectangular mesh wire boxes were placed at the bottom of the aquaria to collect the eggs the following morning. The eggs were pre-treated with the compound of Example 1 (100 μg/ml) for 1 hr, after then the eggs were washed twice with sea salt 1×. […] After three washes with sea salt 1×, the zebrafish eggs were observed under a microscope.

zebrafish neuromast [7] = assay: Observation of zebrafish neuromast using fluorescent microscope (Yo-Pro-1); type: in vivo, Danio rerio
Protocol: When embryo of zebrafish (Danio rerio) wild type is on the 4th day, the drugs (compounds of Examples 1 and 2) were added to 2 ml of embryo media in 6 well, and then 5 embryos were added to each group and reacted with the drug in the incubator maintained at 28.5° C. for one hour. After reaction, embryos were washed three times with embryo media, and then placed in clean embryo media for 3 hours. After 3 hours, […] of Yo-Pro-1 (molecular probes, Oregon U.S.A) was added to embryo media, and then reacted for one hour in the place with blocking the light. After reaction, embryos were washed again three times with clean embryo media, and anesthetized with 8 μg/ml of MS222 (3-aminobenzoic aid ethyl ester, methanesulfonate salt, Sigma Chemical CO, St Louis, U.S.A) anesthetic.

neuromasts of zebrafish = type: in vivo; details: 4 dpf larvae, 50 μM cisplatin co-treatment with compound
Protocol: To detect the apoptotic cells in the embryos, TUNEL assay was employed. […] Thereafter, the larvae were washed with PBS and fixed in 4% paraformaldehyde with 0.1% Tween 20 at room temperature for 24 h. The fixed embryos were then dehydrated, rehydrated, and treated with 60 μg/ml protease kinase (Invitrogen, USA) for 10 min. After the protease kinase treatment, the embryos were fixed in 4% paraformaldehyde in PBS with 0.1% Tween 20 again. The TUNEL staining was achieved by using an in situ apoptosis detection kit. The fixed embryos were immersed in the permeabilization buffer for 30 min on ice. The apoptotic cells were labeled by staining the embryos in a mixture of Terminal Deoxynucleotidyl Transferase (TdT) enzyme and labeling safe buffer containing Fluorescein labeled-2′-Deoxyuridine, 5′-Triphosphate, FITC-dUTP in the ratio of 1 to 9. The embryos were then incubated in a 37° C. humidified chamber for 120 min. The embryos were finally washed thoroughly by PBS in 0.1% Tween 20. The apoptotic signals were captured by a fluorescence microscope (Carl Zeiss, Oberkochen, Germany).

rat hearing [8] = assay: Measurement of brainstem evoked potential hearing in rat; type: in vivo; details: cisplatin in combination with compound (2 mM inside eardrum)
Protocol: Rats were anesthetized with a mixed anesthetic of 1:1 zoletil and rompun, and then subjected to the examination of brainstem evoked potential hearing. […] The stimulus sound was measured by lowering 13 times/sec of the alternating click sound from the strength of 75 dB HL at the ratio of 5 dB per step. The hearing threshold was defined to be a strength at which the normal wave form I is assumed on the basis of the wave form I, the frequency filter of click sound was controlled to 100-3000 Hz, and the number of total stimulus sound was 1,024.
The drug was administered inside eardrum of rats with a 26 gage needle. The brainstem evoked potential hearing was measured a total of three times on days 1, 3 and 7 after administration of the drug.

auditory cells = assay: FACScan with Annexin-V and PI double staining; type: cell-based
Protocol: The degree of apoptosis was analyzed with Annexin V-FITC Apoptosis Detection kit I (BD Biosciences, San Diego, Calif.). 3×10^5 cells were seeded on 60 mm dish, incubated, then starved for 24 hours, and treated with the compounds of Examples 1 and 2 by conditions and incubated for 24 hours. After removing the culture solution, the cells were washed two times with PBS, and suspended in the binding buffer in the ratio of 1×10^6 cells/ml. 100 μl of this solution was transferred to 5 ml tube, and after addition of 5 μl of Annexin V-FITC to the tube, well mixed together, and then reacted for about 15 minutes in the dark place. Then, 400 μl of the binding buffer was added, and the cells were counted until 10,000 cells were on Becton Dicki nson FACSscan (Lysis II Ver. 1.0). The degree of apoptosis was measured depending on the expression of Annexin V-FITC from the result of FACScan flowcytometry. In addition, the degree of apoptosis was also measured under fluorescence microscope.

HEI-OC1 cells [9] = assay: Measurement of intracellular ROS generation (DCFDA); type: cell-based
Protocol: Intracellular generation of ROS was quantified using 5-(and 6)-carboxyl-20,70-dichlorodihydro fluorescein diacetate (DCFDA; Molecular Probes, Eugene, Oreg., USA). […] ROS generation at various time points was checked and the amount of ROS generation was the highest at 16 h. Therefore, 16 h as the time point for ROS detection was chosen for subsequent experiments. Cells were incubated in the dark with 10 μM DCFDA in serum-free medium for 10 min at 33° C. The oxidative burst (hydrogen peroxide, H2O2) was detected using a FACScan flow cytometer (Becton Dickinson, Franklin Lakes, N.J., USA) with excitation and emission settings at 488 and 530 nm, respectively.

[10] = tested on: JNK, p38, cleaved caspase 3, PARP in HEI-OC1; assay: Western blotting of apoptosis-related proteins; type: cell-based
rat hearing [11] = assay: Auditory brainstem responses after transtympanic injection in rat; type: in vivo, Sprague-Dawley rats; details: rat ears pretreated with transtympanic compound (2 mM), then cisplatin
Protocol: Sixteen female Sprague-Dawley rats (Samtaco, Osan, Korea) weighing between 180 and 220 g were used. After transportation, the animals were maintained in the central animal laboratory for at least 1 week. The animals were housed in independently ventilated cages and were allowed free access to water and food. The temperature was maintained at 21±1° C., and the lights were turned on from 8:00 AM to 8:00 PM. Rats with an inner ear infection were not used. This study was approved by the Committee for Ethics in Animal Experiments of the Ajou University School of Medicine.
Animals were sedated using an intraperitoneal (IP) injection of 3.125 mg/kg xylazine, 3.125 mg/kg zolazepam and 11.5 mg/kg xylazine. The rats were divided into two groups after baseline auditory brainstem response (ABR) testing was performed. […] The control group (four rats, eight ears) received transtympanic saline in both ears followed by IP saline (16 mL/kg by IP infusion). […] Posttreatment ABR was obtained on day 14.
Preyer's reflex and otoscopy were used to confirm that the middle ears were normal. The rats were anaesthetized using an IP injection of 3.125 mg/kg zolazepam and 11.5 mg/kg xylazine. Subdermal sterile stainless steel electrode needles were attached, with the active lead at the vertex that referred to a second electrode located at the tip of the nose. The grounding electrode was placed on the front paw muscles. […]

rat cochlea = assay: Tissue TUNEL assay of rat cochlea; type: in vivo; details: cisplatin only
Protocol: Animals were sedated using an intraperitoneal (IP) injection of 3.125 mg/kg xylazine, 3.125 mg/kg zolazepam and […]. The rats were divided into two groups after baseline auditory brainstem response (ABR) testing was performed. […] The control group (four rats, eight ears) received transtympanic saline in both ears followed by IP saline (16 mL/kg by IP infusion). The compound of Example 2 only group (four rats, eight ears) received transtympanic the compound of Example 2 in both ears followed by IP saline (16 mL/kg by IP infusion). On days 2 to 5, daily transtympanic injections of either 2 mM the compound of Example 2 or saline were continued. Posttreatment ABR was obtained on day 14.
After fixation by intralabyrinthine perfusion of 4% paraformaldehyde (pH 7.4), the cochleae were removed and then were incubated in the same fixative overnight. Decalcification was performed in ethylenediamine tetraacetic acid solution (EDTA) (10% in PBS) for 3-4 weeks. Subsequently, the tissues were embedded in paraffin.
Organ of Corti explants were each fixed for 15 min in 3.7% (v/v) formaldehyde in PBS at room temperature. Each explant was rinsed with PBS and incubated in proteinase K diluted from the TUNEL kit for 15 min at room temperature. […] Each explant was washed twice with PBS and examined using a fluorescence microscope.

## NC1(c2ccc(F)cc2)C(=O)Nc2ccccc2C1=O (centres unmarked) [Example 1, 3-amino-3-(4-fluorophenyl)quinolin-2,4(1H,3H)-dione]
HEI-OC1 cells [1]; cisplatin plus compound
  cisplatin-induced increase in sub G1: effectively reduced
HEI-OC1 [2]; cisplatin (50 μM with Example 1, 20 μM with Example 2) and compound administered at the same time
  apoptosis of auditory cells (TUNEL), cisplatin and compound at the same time: inhibited
HEI-OC1 [2]
  apoptosis (TUNEL positive cells) on administration of compound alone: did not cause apoptosis
HEI-OC1 [2]; with cisplatin, dose-dependent manner
  effect of 100 μM compared to 50 μM of compound (TUNEL): better effect
UB-OC1; UB-OC1, 50 of cisplatin plus compound, as the dose of the compound increases
  cisplatin-induced apoptosis of auditory hair cells (MTT): statistically significantly inhibited
UB-OC1; UB-OC1, compound alone, up to elevated dose of 200
  cytotoxicity in auditory hair cells (MTT): substantially no cytotoxicity
Zebrafish neuromast [3]; combined use of compound
  damage of kinocilium and stereocilia caused by cisplatin (SEM, TEM): inhibited the damage of kinocilium and stereocilia
HEI-OC1 [4]; HEI-OC1, 50 of cisplatin plus compound, as the dose of the compound increases
  cisplatin-induced apoptosis of auditory hair cells (MTT): statistically significantly inhibited
HEI-OC1 [4]
  cytotoxicity in auditory hair cells (MTT): substantially no cytotoxicity
HEI-OC1 [5]; cisplatin plus compound
  cisplatin-induced mitochondria damage (loss of MMP, green fluorescence): inhibited
[6]; 50, 100, 150, 200, 400 μM
  drug toxicity for 7 days after incubation of zebrafish: did not show the drug toxicity
[6]; cisplatin (50 μM) plus compound, 24 h
  zebrafish embryos, damage caused by cisplatin: rescued
[6]; even at the concentration of 400 μM
  embryotoxicity in zebrafish model: did not show the drug toxicity
Zebrafish neuromast [7]; cisplatin plus compound, dose-dependent
  neuromast including auditory hair cells disappeared by cisplatin: effectively protected
Neuromasts of zebrafish
  TUNEL positive cells in zebrafish larvae compared to cisplatin alone: reduced TUNEL positive cells
Rat hearing [8]
  hearing threshold: 25˜35 dB
Auditory cells; 50 μM of cisplatin plus compound
  apoptosis increased by cisplatin (annexin/PI FACS), simultaneous administration of compound: statistically significantly inhibited
Auditory cells; with 50 μM cisplatin, dose-dependent manner
  effect of 100 μM compared to 50 μM of compound (annexin/PI FACS): better effect
HEI-OC1 cells [9]; 50 μM cisplatin plus compound (100 μg/ml), 16 h
  cisplatin-induced intracellular ROS generation: significantly inhibited
[10]; cisplatin plus compound
  cisplatin-induced JNK, p38, cleaved caspase 3, PARP: effectively inhibited

## NC1(c2ccc(F)cc2)C(=O)Nc2cccc(F)c2C1=O (centres unmarked) [Example 2, 3-amino-5-fluoro-3-(4-fluorophenyl)quinolin-2,4(1H,3H)-dione]
Rat hearing [11]
  average click-evoked ABR threshold shift: 38.5±11.3 dB
  click-evoked ABR threshold shift, range: 27-49 dB
HEI-OC1 [2]
  apoptosis (TUNEL positive cells) on administration of compound alone: did not cause apoptosis
HEI-OC1 [4]
  cytotoxicity in auditory hair cells (MTT): substantially same result

## N.N.[Cl][Pt][Cl] [cisplatin, reference compound]
HEI-OC1 cells [1]; cisplatin alone
  sub G1 related to apoptosis: increase
UB-OC1; UB-OC1, 50 of cisplatin
  auditory hair cells killed by cisplatin (MTT): about 50%
Zebrafish neuromast [3]
  kinocilium of auditory cells of neuromast (SEM, TEM): markedly damaged or mostly disappeared or fused
HEI-OC1 [4]; HEI-OC1, 50 of cisplatin
  auditory hair cells killed by cisplatin (MTT): about 50%
HEI-OC1 [5]; cisplatin alone
  mitochondrial membrane potential (JC-1 fluorescence): changed into green fluorescence
Zebrafish neuromast [7]; 50 μM cisplatin, zebrafish 4th day
  reduction of neuromast: ≥ 70%
Zebrafish neuromast [7]; 100 μM cisplatin, zebrafish 4th day
  neuromast: substantially all of neuromast was disappeared
Auditory cells; 50 μM of cisplatin
  apoptosis (annexin/PI FACS): increased
HEI-OC1 cells [9]; cisplatin, time-dependent
  generation of intracellular ROS: significantly increased
[10]; cisplatin alone
  JNK, p38, cleaved caspase 3, PARP: increased
Rat cochlea
  TUNEL positive cells in cochlea versus control group: more numerous
